Reference: ChEMBL document CHEMBL1201862, “PubChem BioAssay data set” (2004)
Activity calls are given as the source filed them.

How the values were obtained:
[1] = target: Potassium voltage-gated channel subfamily KQT member 2 (Rattus norvegicus, UniProt O88943); test: retigabine-insensitive KCNQ2 potentiators, concentration-response, dose response, cell-based, retigabine-insensitive compounds (AID 2654); format: functional
Phosphomannomutase 2 = Phosphomannomutase 2 (Homo sapiens, UniProt O15305); test: Counter screen SAR assay for PMM2 inhibitors via a fluorescence intensity assay. [Related pubchem assays (depositor defined):AID1545, AID1574]
[2] = cytotoxicity toward NIH3T3 fibroblasts, dose response, counter-screen, cell-based, ATP luminescence, mouse fibroblasts (AID 2010); format: functional;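 further: cells exposed to compound for about 90 hours before reading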
[3] = target: T1, Mannose-6-phosphate isomerase (Homo sapiens, UniProt P34949); test: PMI enzyme inhibitors, confirmation, biochemical, fluorescence intensity (AID 1535)
T1 sequence (P34949 whole entry): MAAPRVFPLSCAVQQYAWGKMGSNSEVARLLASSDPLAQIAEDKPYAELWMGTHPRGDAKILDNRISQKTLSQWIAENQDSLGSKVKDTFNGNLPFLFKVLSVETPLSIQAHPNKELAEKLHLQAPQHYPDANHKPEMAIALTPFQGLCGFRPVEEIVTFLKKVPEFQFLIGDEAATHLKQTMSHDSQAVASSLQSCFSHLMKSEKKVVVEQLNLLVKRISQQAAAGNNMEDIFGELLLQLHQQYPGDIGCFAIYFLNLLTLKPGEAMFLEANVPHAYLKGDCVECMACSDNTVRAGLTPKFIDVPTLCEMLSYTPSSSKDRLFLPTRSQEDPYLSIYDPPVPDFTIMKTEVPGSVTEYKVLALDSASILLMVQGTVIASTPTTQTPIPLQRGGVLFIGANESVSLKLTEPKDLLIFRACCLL

[4] = inhibitors of intracellular T. cruzi replication, confirmation, NIH3T3 host cells, beta-gal luminescence (AID 2044); format: functional, cell-based;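 further: intracellular parasites grown in NIH/3T3 mouse fibroblasts as host cells; luminescent beta-galactosidase reporter signal from transgenic T. cruzi replicating inside host cells; inhibitors lower the luminescence signal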
[5] = cytotoxicity in HPDE-C7 cells, cell-based, fluorescence, HTS (AID 430); format: functional; conditions: Homo sapiens
[6] = cytotoxicity in KRAS-transformed pancreatic duct cells, primary screen, cell-based, fluorescence, HTS (AID 431); format: functional; conditions: Homo sapiens;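 further: cell line used: HPDE-C7K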
[7] = target: Phosphoethanolamine/phosphocholine phosphatase (Homo sapiens, UniProt Q8TCT1); test: SAR assay for compounds that inhibit PHOSPHO1. [Related pubchem assays (depositor defined):AID1545, AID1565, AID1574]
[8] = target: Glucose-6-phosphate 1-dehydrogenase (Homo sapiens, UniProt P11413); test: human G6PD enzyme inhibitors, dose response, selectivity assay for P. falciparum G6PD inhibitor project, biochemical, fluorescence (AID 504792); format: functional
[9] = target: T2, RNA-binding protein pos-1 (Caenorhabditis elegans, UniProt G5EF15); test: inhibitors of POS-1/mex-3 RNA binding, dose response, biochemical, fluorescence polarization (AID 1964);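 further: purified POS-1 fused to maltose binding protein made in E. coli; potency of compounds blocking POS-1 binding to fluorescent RNA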
T2 sequence (G5EF15 whole entry): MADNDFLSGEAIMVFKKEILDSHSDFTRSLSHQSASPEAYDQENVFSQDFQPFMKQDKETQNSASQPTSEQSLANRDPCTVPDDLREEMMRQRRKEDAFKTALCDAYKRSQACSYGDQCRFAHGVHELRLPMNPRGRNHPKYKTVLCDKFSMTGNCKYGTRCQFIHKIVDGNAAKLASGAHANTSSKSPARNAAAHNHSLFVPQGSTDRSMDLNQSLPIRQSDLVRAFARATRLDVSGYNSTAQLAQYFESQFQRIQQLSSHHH

[10] = target: T3, Zinc finger protein mex-5 (Caenorhabditis elegans, UniProt Q9XUB2); test: MEX-5/TCR-2 RNA interaction inhibitors, dose response, biochemical, C. elegans, fluorescence polarization (AID 1960)
T3 sequence (Q9XUB2 whole entry): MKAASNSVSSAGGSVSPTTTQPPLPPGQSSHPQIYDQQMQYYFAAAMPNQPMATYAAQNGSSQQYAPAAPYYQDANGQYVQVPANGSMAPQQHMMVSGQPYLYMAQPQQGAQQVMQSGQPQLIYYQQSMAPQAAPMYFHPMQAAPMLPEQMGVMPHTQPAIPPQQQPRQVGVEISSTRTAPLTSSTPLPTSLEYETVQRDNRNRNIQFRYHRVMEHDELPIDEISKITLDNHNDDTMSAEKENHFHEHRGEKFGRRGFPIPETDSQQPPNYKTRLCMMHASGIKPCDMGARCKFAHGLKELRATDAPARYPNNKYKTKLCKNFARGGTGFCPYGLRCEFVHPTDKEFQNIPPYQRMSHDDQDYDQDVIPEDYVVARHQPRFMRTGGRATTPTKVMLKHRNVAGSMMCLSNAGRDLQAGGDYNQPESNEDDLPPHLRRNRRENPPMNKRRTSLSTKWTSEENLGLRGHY

Protein Rev = Protein Rev (Human immunodeficiency virus type 1 group M subtype B (isolate HXB2)(HIV-1), UniProt P04618); test: inhibitors of Rev binding to RRE RNA, dose response, biochemical, fluorescence polarization, HIV-1 (AID 434976); design: species or system Human immunodeficiency virus 1
[11] = target: Female germline-specific tumor suppressor gld-1 (Caenorhabditis elegans, UniProt Q17339); test: inhibitors of GLD-1 binding to TGE RNA, dose response, biochemical, fluorescence polarization, C. elegans (AID 2802);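 further: fluorescence polarization of labeled TGE RNA bound by purified gld-1 protein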
[12] = target: Heat shock protein HSP 90-alpha (Homo sapiens, UniProt P07900); test: Luminescence-based dose response biochemical high throughput screening assay for inhibitors of the Heat Shock Protein 90 (HSP90). [Related pubchem assays: 1831 (Summary AID.), 1846 (Confirmation screen.), 1789 (Primary screen.)]
[13] = cytotoxicity in HEK-293T cells, dose response, cytotoxicity control for BCR NF-kB inhibitor project, luminescence, B-cell screen hits (AID 489021); format: functional, cell-based;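 further: HEK-293T cells carrying an NF-kB luciferase reporter; cells exposed to compound for about 14 hours before viability readout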
[14] = target: T4, Heat shock factor protein 1 (Mus musculus, UniProt P38532); test: inhibition of MG132-induced HSE-luciferase signal, confirmation, cell-based, NIH3T3, luminescence, dose retest (AID 2382); format: functional;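 further: NIH3T3 fibroblasts with HSF1-driven luciferase reporter stressed by proteasome inhibitor MG132; luminescence from HSF1-driven luciferase expression after 8 hours of MG132 stress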
T4 sequence (P38532 whole entry): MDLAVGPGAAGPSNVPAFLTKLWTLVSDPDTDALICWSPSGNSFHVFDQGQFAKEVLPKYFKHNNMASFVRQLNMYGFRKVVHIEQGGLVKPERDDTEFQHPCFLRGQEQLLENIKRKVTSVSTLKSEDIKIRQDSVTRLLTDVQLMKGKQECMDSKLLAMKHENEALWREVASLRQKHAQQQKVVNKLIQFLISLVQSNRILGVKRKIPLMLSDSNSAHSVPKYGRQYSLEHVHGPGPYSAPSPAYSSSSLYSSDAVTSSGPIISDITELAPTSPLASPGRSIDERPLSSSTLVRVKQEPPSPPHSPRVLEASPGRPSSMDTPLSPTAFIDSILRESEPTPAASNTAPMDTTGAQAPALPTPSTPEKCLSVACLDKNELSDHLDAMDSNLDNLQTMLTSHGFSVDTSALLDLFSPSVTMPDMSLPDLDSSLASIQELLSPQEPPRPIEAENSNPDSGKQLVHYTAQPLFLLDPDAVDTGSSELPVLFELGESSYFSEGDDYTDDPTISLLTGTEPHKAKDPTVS

[15] = target: T5, Protein phosphatase methylesterase 1 (Homo sapiens, UniProt Q9Y570); test: PME-1 inhibitor potency by in-gel ABPP, dose response, selectivity assay for PME-1 inhibitor project, cell lysate, mouse brain cytosol, FP-rhodamine, panel member PME-1 Assay Panel member description: Inhibition of endogenously expressed PME-1 (AID 2366)
[16] = target: T5, Protein phosphatase methylesterase 1; test: Late stage results from the probe development effort to identify inhibitors of the protein methylesterase PME-1: Gel-based Activity-Based Protein Profiling (ABPP) IC50: Purified enzyme.; format: functional

T5 sequence (Q9Y570 whole entry): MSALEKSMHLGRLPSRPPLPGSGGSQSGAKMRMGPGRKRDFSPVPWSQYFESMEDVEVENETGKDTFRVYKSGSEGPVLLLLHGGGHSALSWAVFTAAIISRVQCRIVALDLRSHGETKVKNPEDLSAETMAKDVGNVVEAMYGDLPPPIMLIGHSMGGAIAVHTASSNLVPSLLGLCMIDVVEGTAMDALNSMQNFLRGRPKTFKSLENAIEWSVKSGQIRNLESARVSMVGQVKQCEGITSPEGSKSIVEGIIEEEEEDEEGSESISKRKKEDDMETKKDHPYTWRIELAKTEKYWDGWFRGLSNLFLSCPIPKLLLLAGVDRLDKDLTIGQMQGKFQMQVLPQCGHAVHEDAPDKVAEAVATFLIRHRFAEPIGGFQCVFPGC
Sequence of Female germline-specific tumor suppressor gld-1 (Q17339 whole entry): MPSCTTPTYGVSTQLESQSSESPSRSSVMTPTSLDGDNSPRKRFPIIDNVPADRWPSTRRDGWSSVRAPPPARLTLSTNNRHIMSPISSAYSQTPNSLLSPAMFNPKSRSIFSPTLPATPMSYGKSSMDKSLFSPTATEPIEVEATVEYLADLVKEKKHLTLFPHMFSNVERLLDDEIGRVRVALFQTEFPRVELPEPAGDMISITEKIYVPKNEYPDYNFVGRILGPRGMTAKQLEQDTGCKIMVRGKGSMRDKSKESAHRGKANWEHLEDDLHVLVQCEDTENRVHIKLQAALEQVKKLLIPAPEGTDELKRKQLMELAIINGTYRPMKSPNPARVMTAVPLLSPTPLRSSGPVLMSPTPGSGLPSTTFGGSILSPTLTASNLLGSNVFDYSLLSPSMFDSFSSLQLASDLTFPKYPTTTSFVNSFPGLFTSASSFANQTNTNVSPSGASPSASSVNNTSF
Sequence of Protein Rev (P04618 whole entry): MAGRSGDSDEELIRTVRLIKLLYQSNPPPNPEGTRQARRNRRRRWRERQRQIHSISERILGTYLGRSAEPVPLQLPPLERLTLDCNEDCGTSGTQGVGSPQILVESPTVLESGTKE
Sequence of Glucose-6-phosphate 1-dehydrogenase (P11413 whole entry, the tested form may be a part): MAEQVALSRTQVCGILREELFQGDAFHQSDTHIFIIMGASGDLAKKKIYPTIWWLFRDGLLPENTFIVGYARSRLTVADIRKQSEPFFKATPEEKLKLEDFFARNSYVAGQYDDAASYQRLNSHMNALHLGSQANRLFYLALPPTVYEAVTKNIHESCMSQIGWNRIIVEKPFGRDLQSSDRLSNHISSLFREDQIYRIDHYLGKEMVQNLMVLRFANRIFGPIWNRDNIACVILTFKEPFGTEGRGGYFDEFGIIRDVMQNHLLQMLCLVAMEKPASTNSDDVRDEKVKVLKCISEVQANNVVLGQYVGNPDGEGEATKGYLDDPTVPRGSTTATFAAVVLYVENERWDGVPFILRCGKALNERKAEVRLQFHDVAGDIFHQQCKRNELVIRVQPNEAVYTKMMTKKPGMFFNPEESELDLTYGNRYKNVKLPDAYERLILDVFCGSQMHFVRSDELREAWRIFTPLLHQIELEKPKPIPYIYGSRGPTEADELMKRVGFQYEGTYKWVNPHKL
Sequence of Potassium voltage-gated channel subfamily KQT member 2 (O88943 whole entry): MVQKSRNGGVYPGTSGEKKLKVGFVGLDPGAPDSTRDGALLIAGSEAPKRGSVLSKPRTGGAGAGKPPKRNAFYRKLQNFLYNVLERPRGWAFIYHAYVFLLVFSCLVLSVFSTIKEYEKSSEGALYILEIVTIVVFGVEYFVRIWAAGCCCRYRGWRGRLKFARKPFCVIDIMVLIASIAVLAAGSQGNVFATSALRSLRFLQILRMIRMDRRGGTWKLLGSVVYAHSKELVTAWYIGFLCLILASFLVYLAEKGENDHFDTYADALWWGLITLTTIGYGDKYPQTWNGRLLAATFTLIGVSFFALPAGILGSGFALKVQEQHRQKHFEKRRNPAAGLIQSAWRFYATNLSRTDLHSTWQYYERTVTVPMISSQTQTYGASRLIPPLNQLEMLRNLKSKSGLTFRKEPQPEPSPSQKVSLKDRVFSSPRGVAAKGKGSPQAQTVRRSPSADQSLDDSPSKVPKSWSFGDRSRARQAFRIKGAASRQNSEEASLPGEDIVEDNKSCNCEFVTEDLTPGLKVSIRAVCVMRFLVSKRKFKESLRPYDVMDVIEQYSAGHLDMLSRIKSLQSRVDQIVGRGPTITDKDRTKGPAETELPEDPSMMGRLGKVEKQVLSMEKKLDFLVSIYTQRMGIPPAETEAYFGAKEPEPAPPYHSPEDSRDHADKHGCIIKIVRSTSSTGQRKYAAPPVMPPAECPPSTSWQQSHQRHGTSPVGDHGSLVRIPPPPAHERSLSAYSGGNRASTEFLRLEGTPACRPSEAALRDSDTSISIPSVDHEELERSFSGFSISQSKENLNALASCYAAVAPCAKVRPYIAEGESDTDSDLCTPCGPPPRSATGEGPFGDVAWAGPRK
Sequence of Phosphoethanolamine/phosphocholine phosphatase (Q8TCT1 whole entry): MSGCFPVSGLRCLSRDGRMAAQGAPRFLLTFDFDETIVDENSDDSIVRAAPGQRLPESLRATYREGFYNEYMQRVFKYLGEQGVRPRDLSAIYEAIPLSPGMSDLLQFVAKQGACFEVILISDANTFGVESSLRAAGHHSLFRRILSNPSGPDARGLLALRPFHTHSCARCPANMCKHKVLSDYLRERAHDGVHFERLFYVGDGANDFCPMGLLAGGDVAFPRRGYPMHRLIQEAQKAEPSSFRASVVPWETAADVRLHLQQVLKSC
Sequence of Phosphomannomutase 2 (O15305 whole entry): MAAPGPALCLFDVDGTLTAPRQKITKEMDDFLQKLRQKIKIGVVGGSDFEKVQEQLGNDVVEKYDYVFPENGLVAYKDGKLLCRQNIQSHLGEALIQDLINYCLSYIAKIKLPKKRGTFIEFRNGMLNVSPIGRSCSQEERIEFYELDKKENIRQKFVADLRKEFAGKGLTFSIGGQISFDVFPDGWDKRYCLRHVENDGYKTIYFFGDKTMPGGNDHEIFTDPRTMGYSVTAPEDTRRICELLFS

With CCOc1ccc(NC(=O)Nc2cccnc2)cc1 the EC50 [1] was 14.3 µM (active).

With O=c1c2ccccc2sn1-c1ccc(S(=O)(=O)N2CCCC2)cc1 the IC50 (Phosphomannomutase 2) was > 100 µM (inactive), the EC50 [2] was > 30 µM (not active) and the IC50 [3] was > 50 µM (inactive). For the same molecule, the EC50 [4] was 1.29 µM (active), the EC50 [5] was > 20 µM (not active) and the EC50 [6] was > 20 µM (not active). For the same molecule, the IC50 [7] was 0.489 µM (active) and the IC50 [8] was 30.7 µM (inactive).

In the case of CCCCN(C(=O)c1ccc([N+](=O)[O-])o1)c1c(N)n(CC(C)C)c(=O)[nH]c1=O, the EC50 [9] was 18.7 µM (active), the EC50 [10] was 16 µM (active) and the IC50 (Protein Rev) was 7.26 µM (active). For the same molecule, the IC50 [11] was 2.74 µM (active).

With Cc1ccc(/C=C2\SC(=S)N(CCCC(=O)Nc3ccccn3)C2=O)cc1 the IC50 [12] was 17.8 µM (not active), the IC50 [13] was > 80 µM (inactive) and the EC50 [14] was 1.51 µM (active).

For CS(=O)(=O)/C(C#N)=C/c1ccccc1, the IC50 [15] was > 20 µM (inactive) and the IC50 [16] was > 20 µM (not active).
